Laboratory results taken from patent US6653330B2, “Amide-type triazole compounds” (Sankyo Company, Limited, priority 2000, dated 2003).

melting point [°C] | Structure (SMILES)
176 | C[C@@H](S[C@H]1CO[C@H](c2ccc(C(=O)Nc3ccc(C#N)cc3)cc2)OC1)[C@](O)(Cn1cncn1)c1ccc(F)cc1F [Example 2, 4′-Cyano-4-[trans-5-[[(1R,2R)-2-(2,4-difluorophenyl)-2-hydroxy-1-methyl-3-(1H-1,2,4-triazol-1-yl)propyl]thio]-1,3-dioxan-2-yl]benzanilide]
210 | C[C@@H](S[C@H]1CO[C@H](c2ccc(C(=O)Nc3ccc(Cl)cc3)cc2)OC1)[C@](O)(Cn1cncn1)c1ccc(F)cc1F [Example 8, 4′-Chloro-4-[trans-5-[[(1R,2R)-2-(2,4-difluorophenyl)-2-hydroxy-1-methyl-3-(1H-1,2,4-triazol-1-yl)propyl]thio]-1,3-dioxan-2-yl]benzanilide]
104 | C[C@@H](S[C@H]1CO[C@H](c2ccc(C(=O)Nc3ccc(F)cc3)cc2)OC1)[C@](O)(Cn1cncn1)c1ccc(F)cc1F [Example 10, 4-[trans-5-[[(1R,2R)-2-(2,4-Difluorophenyl)-2-hydroxy-1-methyl-3-(1H-1,2,4-triazol-1-yl)propyl]thio]-1,3-dioxan-2-yl]-4′-fluorobenzanilide]
210 | C[C@@H](S[C@H]1CO[C@H](c2ccc(C(=O)Nc3ccc(C(F)(F)F)cc3)cc2)OC1)[C@](O)(Cn1cncn1)c1ccc(F)cc1F [Example 11, 4-[trans-5-[[(1R,2R)-2-(2,4-Difluorophenyl)-2-hydroxy-1-methyl-3-(1H-1,2,4-triazol-1-yl)propyl]thio]-1,3-dioxan-2-yl]-4′-(trifluoromethyl)benzanilide]
180 | C[C@@H](S[C@H]1CO[C@H](c2ccc(C(=O)Nc3ccc(OC(F)(F)F)cc3)cc2)OC1)[C@](O)(Cn1cncn1)c1ccc(F)cc1F [Example 12, 4-[trans-5-[[(1R,2R)-2-(2,4-Difluorophenyl)-2-hydroxy-1-methyl-3-(1H-1,2,4-triazol-1-yl)propyl]thio]-1,3-dioxan-2-yl]-4′-(trifluoromethoxy)benzanilide]
95 | C[C@@H](S[C@H]1CO[C@H](c2ccc(C(=O)Nc3ccc(SC(F)(F)F)cc3)cc2)OC1)[C@](O)(Cn1cncn1)c1ccc(F)cc1F [Example 13, 4-[trans-5-[[(1R,2R)-2-(2,4-Difluorophenyl)-2-hydroxy-1-methyl-3-(1H-1,2,4-triazol-1-yl)propyl]thio]-1,3-dioxan-2-yl]-4′-(trifluoromethylthio)benzanilide]
101 | Cc1ccc(NC(=O)c2ccc([C@H]3OC[C@H](S[C@H](C)[C@](O)(Cn4cncn4)c4ccc(F)cc4F)CO3)cc2)cc1 [Example 14, 4-[trans-5-[[(1R,2R)-2-(2,4-Difluorophenyl)-2-hydroxy-1-methyl-3-(1H-1,2,4-triazol-1-yl)propyl]thio]-1,3-dioxan-2-yl]-4′-methylbenzanilide]
221 | C[C@@H](S[C@H]1CO[C@H](c2ccc(C(=O)Nc3ccc(Br)cc3)cc2)OC1)[C@](O)(Cn1cncn1)c1ccc(F)cc1F [Example 15, 4′-Bromo-4-[trans-5-[[(1R,2R)-2-(2,4-difluorophenyl)-2-hydroxy-1-methyl-3-(1H-1,2,4-triazol-1-yl)propyl]thio]-1,3-dioxan-2-yl]benzanilide]
230 | C[C@@H](S[C@H]1CO[C@H](c2ccc(C(=O)Nc3ccc(C(N)=O)cc3)cc2)OC1)[C@](O)(Cn1cncn1)c1ccc(F)cc1F [Example 30, 4′-Carbamoyl-4-[trans-5-[[(1R,2R)-2-(2,4-difluorophenyl)-2-hydroxy-1-methyl-3-(1H-1,2,4-triazol-1-yl)propyl]thio]-1,3-dioxan-2-yl]benzanilide]

Further lines, the compound ahead of its results:

Structure (SMILES) | melting point [°C]
C[C@@H](S[C@H]1CO[C@H](c2ccc(C(=O)Nc3ccc(C#N)c(Cl)c3)cc2)OC1)[C@](O)(Cn1cncn1)c1ccc(F)cc1F | 115
C[C@@H](C[C@H]1CO[C@H](c2ccc(C(=O)Nc3ccc(C#N)cc3)cc2)OC1)[C@](O)(Cn1cncn1)c1ccc(F)cc1F [Example 4, 4′-Cyano-4-[trans-5-[(2S,3R)-3-(2,4-difluorophenyl)-3-hydroxy-2-methyl-4-(1H-1,2,4-triazol-1-yl)butyl]-1,3-dioxan-2-yl]benzanilide] | 159
C[C@@H](S[C@H]1CO[C@H](c2ccc(C(=O)Nc3ccc(C#N)cc3)cc2F)OC1)[C@](O)(Cn1cncn1)c1ccc(F)cc1F [Example 5, 4′-Cyano-4-[trans-5-[[(1R,2R)-2-(2,4-difluorophenyl)-2-hydroxy-1-methyl-3-(1H-1,2,4-triazol-1-yl)propyl]thio]-1,3-dioxan-2-yl]-3-fluorobenzanilide] | 110
C[C@@H](S[C@H]1CO[C@H](c2cccc(C(=O)Nc3ccc(C#N)cc3)c2)OC1)[C@](O)(Cn1cncn1)c1ccc(F)cc1F [Example 6, 4′-Cyano-3-[trans-5-[[(1R,2R)-2-(2,4-difluorophenyl)-2-hydroxy-1-methyl-3-(1H-1,2,4-triazol-1-yl)propyl]thio]-1,3-dioxan-2-yl]benzanilide] | 105
C[C@@H](S[C@H]1CO[C@H](c2ccc(C(=O)Nc3ccc(CC#N)cc3)cc2)OC1)[C@](O)(Cn1cncn1)c1ccc(F)cc1F [Example 7, 4′-(Cyanomethyl)-4-[trans-5-[[(1R,2R)-2-(2,4-difluorophenyl)-2-hydroxy-1-methyl-3-(1H-1,2,4-triazol-1-yl)propyl]thio]-1,3-dioxan-2-yl]benzanilide] | 188
C[C@@H](S[C@H]1CO[C@H](c2ccc(C(=O)Nc3ccncc3)cc2)OC1)[C@](O)(Cn1cncn1)c1ccc(F)cc1F [Example 17, 4-[trans-5-[[(1R,2R)-2-(2,4-Difluorophenyl)-2-hydroxy-1-methyl-3-(1H-1,2,4-triazol-1-yl)propyl]thio]-1,3-dioxan-2-yl]-N-(4-pyridyl)benzamide] | 133
C[C@@H](S[C@H]1CO[C@H](c2ccc(C(=O)Nc3ccc([N+](=O)[O-])cc3)cc2)OC1)[C@](O)(Cn1cncn1)c1ccc(F)cc1F [Example 18] | 189
C[C@@H](S[C@H]1CO[C@H](c2ccc(C(=O)Nc3ccc(C#N)c4ccccc34)cc2)OC1)[C@](O)(Cn1cncn1)c1ccc(F)cc1F [Example 19, N-(4-Cyano-1-naphthyl)-4-[trans-5-[[(1R,2R)-2-(2,4-difluorophenyl)-2-hydroxy-1-methyl-3-(1H-1,2,4-triazol-1-yl)propyl]thio]-1,3-dioxan-2-yl]benzamide] | 109
C[C@@H](S[C@H]1CO[C@H](c2ccc(C(=O)Nc3c(F)c(F)c(C#N)c(F)c3F)cc2)OC1)[C@](O)(Cn1cncn1)c1ccc(F)cc1F [Example 20, 4′-Cyano-4-[trans-5-[[(1R,2R)-2-(2,4-difluorophenyl)-2-hydroxy-1-methyl-3-(1H-1,2,4-triazol-1-yl)propyl]thio]-1,3-dioxan-2-yl]-2′,3′,5′,6′-tetrafluorobenzanilide] | 182
C[C@@H](S[C@H]1CO[C@H](c2ccc(C(=O)Nc3ccc(C#N)c(C#N)c3)cc2)OC1)[C@](O)(Cn1cncn1)c1ccc(F)cc1F [Example 21, 3′,4′-Dicyano-4-[trans-5-[[(1R,2R)-2-(2,4-difluorophenyl)-2-hydroxy-1-methyl-3-(1H-1,2,4-triazol-1-yl)propyl]thio]-1,3-dioxan-2-yl]benzanilide] | 182
CC(=O)c1ccc(NC(=O)c2ccc([C@H]3OC[C@H](S[C@H](C)[C@](O)(Cn4cncn4)c4ccc(F)cc4F)CO3)cc2)cc1 [Example 22, 4′-Acetyl-4-[trans-5-[[(1R,2R)-2-(2,4-difluorophenyl)-2-hydroxy-1-methyl-3-(1H-1,2,4-triazol-1-yl)propyl]thio]-1,3-dioxan-2-yl]benzanilide] | 171
CC(=O)Oc1ccc(NC(=O)c2ccc([C@H]3OC[C@H](S[C@H](C)[C@](O)(Cn4cncn4)c4ccc(F)cc4F)CO3)cc2)cc1 [Example 24, 4′-Acetoxy-4-[trans-5-[[(1R,2R)-2-(2,4-difluorophenyl)-2-hydroxy-1-methyl-3-(1H-1,2,4-triazol-1-yl)propyl]thio]-1,3-dioxan-2-yl]benzanilide] | 127
C[C@@H](S[C@H]1CO[C@H](c2ccc(C(=O)Nc3ccc(C#N)cc3F)cc2)OC1)[C@](O)(Cn1cncn1)c1ccc(F)cc1F [Example 25, 4′-Cyano-2′-fluoro-4-[trans-5-[[(1R,2R)-2-(2,4-difluorophenyl)-2-hydroxy-1-methyl-3-(1H-1,2,4-triazol-1-yl)propyl]thio]-1,3-dioxan-2-yl]benzanilide] | 136
C[C@@H](S[C@H]1CO[C@H](c2ccc(C(=O)Nc3nccs3)cc2)OC1)[C@](O)(Cn1cncn1)c1ccc(F)cc1F [Example 27, 4-[trans-5-[[(1R,2R)-2-(2,4-Difluorophenyl)-2-hydroxy-1-methyl-3-(1H-1,2,4-triazol-1-yl)propyl]thio]-1,3-dioxan-2-yl]-N-(2-thiazolyl)benzamide] | 108
C[C@@H](S[C@H]1CO[C@H](c2ccc(C(=O)Nc3nc4ccccc4s3)cc2)OC1)[C@](O)(Cn1cncn1)c1ccc(F)cc1F [Example 28, N-(Benzothiazol-2-yl)-4-[trans-5-[[(1R,2R)-2-(2,4-difluorophenyl)-2-hydroxy-1-methyl-3-(1H-1,2,4-triazol-1-yl)propyl]thio]-1,3-dioxan-2-yl]benzamide] | 107
C[C@@H](S[C@H]1CO[C@H](c2ccc(C(=O)NCc3cccc4ccccc34)cc2)OC1)[C@](O)(Cn1cncn1)c1ccc(F)cc1F [Example 29, 4-[trans-5-[[(1R,2R)-2-(2,4-Difluorophenyl)-2-hydroxy-1-methyl-3-(1H-1,2,4-triazol-1-yl)propyl]thio]-1,3-dioxan-2-yl]-N-[(1-naphthyl)methyl]benzamide] | 97
